Reference: patent US10556870B2, “Imidazole compounds as EAAT3 inhibitors” (Hoffmann-La Roche Inc., priority 2016, dated 2020)

Key:
human EAAT3 = target: T1, human EAAT3 (Homo sapiens, UniProt P43005); assay: FLIPR Membrane Potential (FMP) assay, antagonist potency at human EAAT3 with L-glutamate as agonist; type: cell-based; details: HEK-293 cells stably expressing human EAAT3; L-glutamate at 80% of maximum response; antagonist applied 15 min before agonist; Kb by Cheng-Prusoff equation
T1 construct: expressed in transfected cells
T1 sequence (P43005 1-524): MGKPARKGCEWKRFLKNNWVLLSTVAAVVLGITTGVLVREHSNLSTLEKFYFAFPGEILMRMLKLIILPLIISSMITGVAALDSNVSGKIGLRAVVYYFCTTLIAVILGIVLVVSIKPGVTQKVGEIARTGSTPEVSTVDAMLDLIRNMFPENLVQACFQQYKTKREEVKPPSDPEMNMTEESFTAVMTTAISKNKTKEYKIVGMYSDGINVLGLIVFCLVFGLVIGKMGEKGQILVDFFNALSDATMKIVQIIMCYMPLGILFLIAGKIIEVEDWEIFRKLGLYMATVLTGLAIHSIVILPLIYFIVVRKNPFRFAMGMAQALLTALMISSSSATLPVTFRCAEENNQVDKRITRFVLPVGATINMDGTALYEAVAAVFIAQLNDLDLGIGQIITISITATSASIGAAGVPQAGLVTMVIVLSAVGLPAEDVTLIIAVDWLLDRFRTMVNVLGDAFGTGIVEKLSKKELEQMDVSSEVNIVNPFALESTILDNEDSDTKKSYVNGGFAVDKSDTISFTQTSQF
Experimental: The FLIPR Membrane Potential (FMP) Assay
HEK-293 cells stably expressing human EAAT3 were seeded at 55 000 cells/well in growth medium (DMEM glutamate free (Invitrogen 11960-044), 1% Pen Strep (10 ml/l GIBCO BRL No 15140-023), 10% FCS non dialysed heat inactivated, 5 mg/l puromycin) in poly-D-lysine treated 96-well black microtiter plates with clear-bottom. After 24 h, the growth medium was removed and 100 μl/well of Krebs buffer (140 mM NaCl, 4.7 mM KCl, 2.5 mM CaCl2, 1.2 mM MgCl2, 11 mM HEPES, 10 mM D-glucose, pH=7.4) added. The cells were then loaded by adding 100 μl/well FMP assay dye (FLIPR Membrane Potential assay reagent, Molecular Devices). The 96-well plates were then incubated at 37° C. for 1 h. The depolarization of the cells will cause more dye to enter in the cells, where it will bind to intracellular proteins and lipids and cause an increase in the fluorescence signal. Antagonist potency at human EAAT3 was determined by using L-glutamate as agonist at a concentration which gives 80% of the maximum response. The antagonists were applied 15 min before the application of the agonist L-glutamate. The assays were performed at room temperature and measurements done by using a Fluorometric Imaging Plate Reader (FLIPR, Molecular Devices) and filter #2. Responses were measured as peak increase in fluorescence minus basal (i.e. fluorescence without addition of L-glutamate). Kb was determined using the Cheng-Prusoff equation Kb=IC50/[1+(A/EC50)], where IC50 is the concentration of the antagonist producing 50% inhibition, A is the concentration of the agonist against which the IC50 is being determined (at EC50) and EC50 is the concentration of the agonist producing […].

Row | Kb (human EAAT3) [nM] | melting point [°C] | SMILES
1 | 200 | 92 | CC(C)(C)NC(=O)c1cc(-c2ccc(Cl)cc2)cc(-c2cncn2C(C)(C)C)c1 [Example 7, N-tert-Butyl-3-(3-tert-butyl-imidazol-4-yl)-5-(4-chlorophenyl)-benzamide]
2 | 230 | 87 | CCn1cncc1-c1cc(C(=O)NC(C)(C)C)cc(-c2ccc(C(F)(F)F)cc2)c1 [Example 10, N-tert-Butyl-3-(3-ethyl-imidazol-4-yl)-5-[4-(trifluoromethyl)-phenyl]-benzamide]
3 | 160 | 79 | CCn1cncc1-c1cc(C(=O)NC(C)(C)C)cc(-c2ccc(F)cc2)c1 [Example 9, N-tert-Butyl-3-(3-ethyl-imidazol-4-yl)-5-(4-fluorophenyl)-benzamide]
4 | 190 | 89 | CCn1cncc1-c1cc(C(=O)NC(C)(C)C)cc(-c2ccc(Cl)cc2)c1 [Example 8, N-tert-Butyl-3-(4-chlorophenyl)-5-(3-ethyl-imidazol-4-yl)-benzamide]
5 | 270 | 87 | CC(C)(C)NC(=O)c1cc(-c2ccc(C(F)(F)F)cc2)cc(-c2cncn2C(C)(C)C)c1 [Example 12, N-tert-Butyl-3-(3-tert-butyl-imidazol-4-yl)-5-[4-(trifluoromethyl)-phenyl]-benzamide]
6 | 210 | 96 | CC(C)(C)NC(=O)c1cc(-c2ccc(F)cc2)cc(-c2cncn2C(C)(C)C)c1 [Example 11, N-tert-Butyl-3-(3-tert-butyl-imidazol-4-yl)-5-(4-fluorophenyl)-benzamide]

Continued, compound first:

Row | SMILES | Kb (human EAAT3) [nM] | melting point [°C]
7 | Cn1cncc1-c1cc(C(=O)NC(C)(C)C)cc(-c2ccc(F)cc2)c1 [Example 6, N-tert-Butyl-3-(4-fluorophenyl)-5-(3-methyl-imidazol-4-yl)-benzamide] | 270 | 62
8 | CC(C)n1cncc1-c1cc(C(=O)NC(C)(C)C)cc(-c2ccc(F)cc2)c1 [Example 1, N-tert-Butyl-3-(4-fluorophenyl)-5-(3-propan-2-yl-imidazol-4-yl)-benzamide] | 160 | 85
9 | Cn1cncc1-c1cc(C(=O)NC(C)(C)C)cc(-c2ccc(C(F)(F)F)cc2)c1 [Example 5, N-tert-Butyl-3-(3-methyl-imidazol-4-yl)-5-[4-(trifluoromethyl)-phenyl]-benzamide] | 360 | 78.5
10 | CC(C)n1cncc1-c1cc(C(=O)NC(C)(C)C)cc(-c2ccc(C(F)(F)F)cc2)c1 [Example 2, N-tert-Butyl-3-(3-propan-2-yl-imidazol-4-yl)-5-[4-(trifluoromethyl)-phenyl]-benzamide] | 270 | 88
11 | CC(C)n1cncc1-c1cc(C(=O)NC(C)(C)C)cc(-c2ccc(Cl)cc2)c1 [Example 3, N-tert-Butyl-3-(4-chlorophenyl)-5-(3-propan-2-yl-imidazol-4-yl)-benzamide] | 140 | 97.5
12 | Cn1cncc1-c1cc(C(=O)NC(C)(C)C)cc(-c2ccc(Cl)cc2)c1 [Example 4, N-tert-Butyl-3-(4-chlorophenyl)-5-(3-methyl-imidazol-4-yl)-benzamide] | 290 | 79.5
